According to patent US5393869A, “Parathyroid hormone derivatives” (Takeda Chemical Industries, Ltd., priority 1990, dated 1995):

target: T1, PTH receptor (Mus musculus, UniProt P41593); experiment: cAMP production by PTH (1-34) analogues in MC3T3-EI osteoblast-like cells; assay type: cell-based; conditions: cAMP production, 0.01-100 nM analogue, room temperature 30 minutes, hPTH(1-34) = 1.00
T1 construct: a mouse cranial bone-derived osteoblast-like cell strain, MC3T3-EI cells, cultivated on a 96-well multiplate; endogenous in cells; host or cells: MC3T3-E1 mouse osteoblast-like cells
T1 sequence (P41593 27-591): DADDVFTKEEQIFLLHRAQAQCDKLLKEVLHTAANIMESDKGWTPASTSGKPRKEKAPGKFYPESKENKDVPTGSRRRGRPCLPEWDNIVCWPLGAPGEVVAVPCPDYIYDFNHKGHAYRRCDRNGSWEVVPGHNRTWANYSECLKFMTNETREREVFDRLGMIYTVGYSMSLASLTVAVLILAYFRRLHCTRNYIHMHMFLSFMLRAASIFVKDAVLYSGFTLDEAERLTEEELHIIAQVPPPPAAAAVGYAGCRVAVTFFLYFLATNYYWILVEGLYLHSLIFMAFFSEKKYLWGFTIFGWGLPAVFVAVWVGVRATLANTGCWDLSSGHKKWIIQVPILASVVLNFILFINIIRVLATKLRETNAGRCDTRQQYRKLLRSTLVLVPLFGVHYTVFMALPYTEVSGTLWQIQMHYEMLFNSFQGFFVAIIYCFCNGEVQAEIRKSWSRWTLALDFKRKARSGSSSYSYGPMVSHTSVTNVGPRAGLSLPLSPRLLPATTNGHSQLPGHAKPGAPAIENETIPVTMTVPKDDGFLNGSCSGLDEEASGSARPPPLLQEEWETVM
Description: The biological activity of the peptide analogues was evaluated by a modified version of the method reported by Shigeno et al. in The Journal of Biological Chemistry 263, 18369-18377 (1988). A culture solution (Hank's solution, containing 20 mM N-2-hydroxyethylpiperazine-N'-2-ethanesulfonic acid (HEPES), 0.1% bovine serum albumin and 0.5 mM isobutylmethyl-xanthine) containing 0.01, 0.1, 1, 10 or 100 nM analogue was added in an amount of 100 μto a mouse cranial bone-derived osteoblast-like cell strain, MC3T3-EI cells, cultivated on a 96-well multiplate (Nunclon, Nunc), followed by reaction at room temperature for 30 minutes. After addition of 100 μof 0.2N hydrochloric acid, the mixture was immersed in boiling water for 2.5 minutes, and cyclic adenosine monophosphate (cAMP) produced by a PTH receptor was extracted from the cells. The total cAMP in the culture solution and the cells was assayed using a commercial radioimmunoassay kit (cyclic AMP [^125 I] kit "Du Pont-Daiichi", Daiichi Kagaku Yakuhin).

Compared with `CC[C@H](C)[C@H](NC(=O)[C@H](CCC(=O)O)NC(=O)[C@H](CO)NC(=O)[C@@H](NC(=O)[C@@H](N)CO)C(C)C)C(=O)N[C@@H](CCC(N)=O)C(=O)N[C@@H](CC(C)C)C(=O)N[C@@H](CCSC)C(=O)N[C@@H](Cc1c[nH]cn1)C(=O)N[C@@H](CC(N)=O)C(=O)N[C@@H](CC(C)C)C(=O)NCC(=O)N[C@@H](CCCCN)C(=O)N[C@@H](Cc1c[nH]cn1)C(=O)N[C@@H](CC(C)C)C(=O)N[C@@H](CC(N)=O)C(=O)N[C@@H](CO)C(=O)N[C@@H](CCSC)C(=O)N[C@@H](CCC(=O)O)C(=O)N[C@@H](CCCNC(=N)N)C(=O)N[C@H](C(=O)N[C@@H](CCC(=O)O)C(=O)N[C@@H](Cc1c[nH]c2ccccc12)C(=O)N[C@@H](CC(C)C)C(=O)N[C@@H](CCCNC(=N)N)C(=O)N[C@@H](CCCCN)C(=O)N[C@@H](CC(C)C)C(=O)N[C@@H](CC(C)C)C(=O)N[C@@H](CCC(N)=O)C(=O)N[C@@H](CC(=O)O)C(=O)N[C@H](C(=O)N[C@@H](Cc1c[nH]cn1)C(=O)N[C@@H](CC(N)=O)C(=O)N[C@@H](Cc1ccccc1)C(=O)O)C(C)C)C(C)C` [[Leu^27] hPTH (1-34), (Leu^27)hPTH(1-34)], `CC[C@H](C)[C@H](NC(=O)[C@H](CCC(=O)O)NC(=O)[C@H](CO)NC(=O)[C@@H](NC(=O)[C@@H](N)CO)C(C)C)C(=O)N[C@@H](CCC(N)=O)C(=O)N[C@@H](CC(C)C)C(=O)N[C@@H](CCSC)C(=O)N[C@@H](Cc1c[nH]cn1)C(=O)N[C@@H](CC(N)=O)C(=O)N[C@@H](CC(C)C)C(=O)NCC(=O)N[C@@H](CCCCN)C(=O)N[C@@H](Cc1c[nH]cn1)C(=O)N[C@@H](CC(C)C)C(=O)N[C@@H](CC(N)=O)C(=O)N[C@@H](CO)C(=O)N[C@@H](CC(C)C)C(=O)N[C@@H](CCC(=O)O)C(=O)N[C@@H](CCCNC(=N)N)C(=O)N[C@H](C(=O)N[C@@H](CCC(=O)O)C(=O)N[C@@H](Cc1c[nH]c2ccccc12)C(=O)N[C@@H](CC(C)C)C(=O)N[C@@H](CCCNC(=N)N)C(=O)N[C@@H](CCCCN)C(=O)N[C@@H](CCCCN)C(=O)N[C@@H](CC(C)C)C(=O)N[C@@H](CCC(N)=O)C(=O)N[C@@H](CC(=O)O)C(=O)N[C@H](C(=O)N[C@@H](Cc1c[nH]cn1)C(=O)N[C@@H](CC(N)=O)C(=O)N[C@@H](Cc1ccccc1)C(=O)O)C(C)C)C(C)C` [[Leu^18] hPTH (1-34), (Leu^18)hPTH(1-34)] is lower in “Biological Activity (Represented by Relative Activity to hPTH(1-34))” value: 1.2 for the first, 0.4 for the second.

First: CC[C@H](C)[C@H](NC(=O)[C@H](CCC(=O)O)NC(=O)[C@H](CO)NC(=O)[C@@H](NC(=O)[C@@H](N)CO)C(C)C)C(=O)N[C@@H](CCC(N)=O)C(=O)N[C@@H](CC(C)C)C(=O)N[C@@H](CCSC)C(=O)N[C@@H](Cc1c[nH]cn1)C(=O)N[C@@H](CC(N)=O)C(=O)N[C@@H](CCCCN)C(=O)NCC(=O)N[C@@H](CCCCN)C(=O)N[C@@H](Cc1c[nH]cn1)C(=O)N[C@@H](CC(C)C)C(=O)N[C@@H](CC(N)=O)C(=O)N[C@@H](CO)C(=O)N[C@@H](CCSC)C(=O)N[C@@H](CCC(=O)O)C(=O)N[C@@H](CCCNC(=N)N)C(=O)N[C@H](C(=O)N[C@@H](CCC(=O)O)C(=O)N[C@@H](Cc1c[nH]c2ccccc12)C(=O)N[C@@H](CC(C)C)C(=O)N[C@@H](CCCNC(=N)N)C(=O)N[C@@H](CCCCN)C(=O)N[C@@H](CCCCN)C(=O)N[C@@H](CC(C)C)C(=O)N[C@@H](CCC(N)=O)C(=O)N[C@@H](CC(=O)O)C(=O)N[C@H](C(=O)N[C@@H](Cc1c[nH]cn1)C(=O)N[C@@H](CC(N)=O)C(=O)N[C@@H](Cc1ccccc1)C(N)=O)C(C)C)C(C)C [[Lys^11] hPTH (1-34)NH2, (Lys^11)hPTH(1-34)NH2]
Second: CC[C@H](C)[C@H](NC(=O)[C@H](CCC(=O)O)NC(=O)[C@H](CO)NC(=O)[C@@H](NC(=O)[C@@H](N)CO)C(C)C)C(=O)N[C@@H](CCC(N)=O)C(=O)N[C@@H](CC(C)C)C(=O)N[C@@H](CCSC)C(=O)N[C@@H](Cc1c[nH]cn1)C(=O)N[C@@H](CC(N)=O)C(=O)N[C@@H](CO)C(=O)NCC(=O)N[C@@H](CCCCN)C(=O)N[C@@H](Cc1c[nH]cn1)C(=O)N[C@@H](CC(C)C)C(=O)N[C@@H](CC(N)=O)C(=O)N[C@@H](CO)C(=O)N[C@@H](CCSC)C(=O)N[C@@H](CCC(=O)O)C(=O)N[C@@H](CCCNC(=N)N)C(=O)N[C@H](C(=O)N[C@@H](CCC(=O)O)C(=O)N[C@@H](Cc1c[nH]c2ccccc12)C(=O)N[C@@H](CC(C)C)C(=O)N[C@@H](CCCNC(=N)N)C(=O)N[C@@H](CCCCN)C(=O)N[C@@H](CCCCN)C(=O)N[C@@H](CC(C)C)C(=O)N[C@@H](CCC(N)=O)C(=O)N[C@@H](CC(=O)O)C(=O)N[C@H](C(=O)N[C@@H](Cc1c[nH]cn1)C(=O)N[C@@H](CC(N)=O)C(=O)N[C@@H](Cc1ccccc1)C(N)=O)C(C)C)C(C)C [[Ser^11] hPTH (1-34)NH2, (Ser^11)hPTH(1-34)NH2]
The “Biological Activity (Represented by Relative Activity to hPTH(1-34))” value of the first is higher: 1.1 for the first, 0.8 for the second.

Compared with `CC[C@H](C)[C@H](NC(=O)[C@H](CCC(=O)O)NC(=O)[C@H](CO)NC(=O)[C@@H](NC(=O)[C@@H](N)CO)C(C)C)C(=O)N[C@@H](CCC(N)=O)C(=O)N[C@@H](CC(C)C)C(=O)N[C@@H](CCSC)C(=O)N[C@@H](Cc1c[nH]cn1)C(=O)N[C@@H](CC(N)=O)C(=O)N[C@@H](CC(C)C)C(=O)NCC(=O)N[C@@H](CCCCN)C(=O)N[C@@H](Cc1c[nH]cn1)C(=O)N[C@@H](CC(C)C)C(=O)N[C@@H](CC(N)=O)C(=O)N[C@@H](CO)C(=O)N[C@@H](CCSC)C(=O)N[C@@H](CCC(=O)O)C(=O)N[C@@H](CCCNC(=N)N)C(=O)N[C@H](C(=O)N[C@@H](CCC(=O)O)C(=O)N[C@@H](Cc1c[nH]c2ccccc12)C(=O)N[C@@H](CC(C)C)C(=O)N[C@@H](CCCNC(=N)N)C(=O)N[C@@H](CCCCN)C(=O)N[C@@H](CCC(N)=O)C(=O)N[C@@H](CC(C)C)C(=O)N[C@@H](CCC(N)=O)C(=O)N[C@@H](CC(=O)O)C(=O)N[C@H](C(=O)N[C@@H](Cc1c[nH]cn1)C(=O)N[C@@H](CC(N)=O)C(=O)N[C@@H](Cc1ccccc1)C(=O)O)C(C)C)C(C)C` [[Gln^27] hPTH (1-34), (Gln^27)hPTH(1-34)], `CC[C@H](C)[C@H](NC(=O)[C@H](CCC(=O)O)NC(=O)[C@H](CO)NC(=O)[C@@H](NC(=O)[C@@H](N)CO)C(C)C)C(=O)N[C@@H](CCC(N)=O)C(=O)N[C@@H](CC(C)C)C(=O)N[C@@H](CCSC)C(=O)N[C@@H](Cc1c[nH]cn1)C(=O)N[C@@H](CC(N)=O)C(=O)N[C@@H](Cc1ccccc1)C(=O)NCC(=O)N[C@@H](CCCCN)C(=O)N[C@@H](Cc1c[nH]cn1)C(=O)N[C@@H](CC(C)C)C(=O)N[C@@H](CC(N)=O)C(=O)N[C@@H](CO)C(=O)N[C@@H](CCSC)C(=O)N[C@@H](CCC(=O)O)C(=O)N[C@@H](CCCNC(=N)N)C(=O)N[C@H](C(=O)N[C@@H](CCC(=O)O)C(=O)N[C@@H](Cc1c[nH]c2ccccc12)C(=O)N[C@@H](CC(C)C)C(=O)N[C@@H](CCCNC(=N)N)C(=O)N[C@@H](CCCCN)C(=O)N[C@@H](CCCCN)C(=O)N[C@@H](CC(C)C)C(=O)N[C@@H](CCC(N)=O)C(=O)N[C@@H](CC(=O)O)C(=O)N[C@H](C(=O)N[C@@H](Cc1c[nH]cn1)C(=O)N[C@@H](CC(N)=O)C(=O)N[C@@H](Cc1ccccc1)C(=O)O)C(C)C)C(C)C` [[Phe^11] hPTH (1-34), (Phe^11)hPTH(1-34)] is lower in “Biological Activity (Represented by Relative Activity to hPTH(1-34))” value: 2.5 for the first, 1.1 for the second.

With `CC[C@H](C)[C@H](NC(=O)[C@H](CCC(=O)O)NC(=O)[C@H](CO)NC(=O)[C@@H](NC(=O)[C@@H](N)CO)C(C)C)C(=O)N[C@@H](CCC(N)=O)C(=O)N[C@@H](CC(C)C)C(=O)N[C@@H](CCSC)C(=O)N[C@@H](Cc1c[nH]cn1)C(=O)N[C@@H](CC(N)=O)C(=O)N[C@@H](CC(C)C)C(=O)N[C@H](CC(C)C)C(=O)N[C@@H](CCCCN)C(=O)N[C@@H](Cc1c[nH]cn1)C(=O)N[C@@H](CC(C)C)C(=O)N[C@@H](CC(N)=O)C(=O)N[C@@H](CO)C(=O)N[C@@H](CCSC)C(=O)N[C@@H](CCC(=O)O)C(=O)N[C@@H](CCCNC(=N)N)C(=O)N[C@H](C(=O)N[C@@H](CCC(=O)O)C(=O)N[C@@H](Cc1c[nH]c2ccccc12)C(=O)N[C@@H](CC(C)C)C(=O)N[C@@H](CCCNC(=N)N)C(=O)N[C@@H](CCCCN)C(=O)N[C@@H](CCCCN)C(=O)N[C@@H](CC(C)C)C(=O)N[C@@H](CCC(N)=O)C(=O)N[C@@H](CC(=O)O)C(=O)N[C@H](C(=O)N[C@@H](Cc1c[nH]cn1)C(=O)N[C@@H](CC(N)=O)C(=O)N[C@@H](Cc1ccccc1)C(N)=O)C(C)C)C(C)C` [[D-Leu^12] hPTH (1-34)NH2, (D-Leu^12)hPTH(1-34)NH2] the “Biological Activity (Represented by Relative Activity to hPTH(1-34))” value was 0.5.
